Test results as given in patent publication US20260374739A1, “SMALL MOLECULAR WEIGHT CHEMICAL COMPOUND TO ANTAGONIZE EPH-EPHRIN TETRAMERIZATION AND INHIBIT BIDIRECTIONAL SIGNALING” (THE BOARD OF REGENTS OF THE UNIVERSITY OF TEXAS SYSTEM, priority 2022, published 2026).
“And” between values parts separate entries of the source, which are not always exact repeats. Equal values may be shown once.

Target: T1, EphB2-EphrinB2 (Mus musculus, UniProt P54763)
T1 sequence (P54763 19-543 limits assumed): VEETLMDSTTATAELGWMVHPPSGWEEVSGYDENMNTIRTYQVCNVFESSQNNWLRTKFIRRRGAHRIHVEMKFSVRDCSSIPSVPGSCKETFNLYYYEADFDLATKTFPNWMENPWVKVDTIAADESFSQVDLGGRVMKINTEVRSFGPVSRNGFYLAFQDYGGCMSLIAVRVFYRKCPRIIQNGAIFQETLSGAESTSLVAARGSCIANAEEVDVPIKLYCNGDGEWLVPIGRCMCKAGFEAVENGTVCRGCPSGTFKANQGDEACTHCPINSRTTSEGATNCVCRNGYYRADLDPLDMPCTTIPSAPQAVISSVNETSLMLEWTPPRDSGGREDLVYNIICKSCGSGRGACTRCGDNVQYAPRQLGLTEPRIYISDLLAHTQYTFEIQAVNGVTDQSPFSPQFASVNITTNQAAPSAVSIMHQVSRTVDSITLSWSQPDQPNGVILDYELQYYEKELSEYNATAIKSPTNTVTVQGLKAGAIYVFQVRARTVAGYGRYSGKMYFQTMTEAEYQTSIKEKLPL
Experiment: Octet, immobilized mouse EphB2 binding to mouse EphrinB2
Details: Absolute Association IC50, mEphB2-mEphrinB2; immobilized mouse EphB2; 50 nM soluble mouse EphrinB2; association; absolute
Excerpt: (§1) The novel compound A20-I is a halogen replacement that changes the 7-bromine in A20 for iodine and had enhanced tetramerization inhibitor activity (FIGS. 38A-38D). This is evident when comparing results of A20-I and A20 salt compounds on the interaction of immobilized mouse EphB2 ectodomain binding to soluble mouse EphrinB2 ectodomain (FIG. 38A and FIG. 38B) or soluble human EphrinA5 (FIG. 38C). […] During these interactions of immobilized EphB ectodomains binding to soluble EphrinB2, the tetramer is much more surmountable by addition of an active compound than for the reverse experiment where EphrinB2 is immobilized and EphB2 is the soluble component in the assay (see FIG. 11, FIG. 17, and FIG. 25A-FIG. 25C). It is believed that the more resistant unsurmountable tetramer formed by immobilized EphrinB2 binding to soluble EphB ectodomains provides for the most rigorous test for determining IC50 values and thus utilizing this EphrinB2-EphB2 assay for analysis of all compounds, provide uniformity in observed results. The results described herein with A20-I and using the human EphrinB2-EphB2 interaction indicates replacements can be made in the 7-bromine in A20 that lead to enhanced tetramerization inhibitor activity.

SMILES	IC50
Oc1c(I)cc(CN2CCOCC2)c2cccnc12 [Compound 8, 4-((8-hydroxy-7-iodoquinolin-1-ium-5-yl)methyl)morpholin-4-ium chloride]	690 nM and 1300 nM
O=S1(=O)CCN(Cc2ccc(O)c3ncccc23)CC1 [Compound 15, 4-((8-hydroxyquinolin-1-ium-5-yl)methyl)thiomorpholin-4-ium 1,1-dioxide chloride]	100000 nM

Same assay, conditions: Absolute Dissociation IC50, mEphB2-mEphrinB2; immobilized mouse EphB2; 50 nM soluble mouse EphrinB2; dissociation; absolute

SMILES	IC50
Oc1c(I)cc(CN2CCOCC2)c2cccnc12 [Compound 8, 4-((8-hydroxy-7-iodoquinolin-1-ium-5-yl)methyl)morpholin-4-ium chloride]	470 nM and 510 nM
O=S1(=O)CCN(Cc2ccc(O)c3ncccc23)CC1 [Compound 15, 4-((8-hydroxyquinolin-1-ium-5-yl)methyl)thiomorpholin-4-ium 1,1-dioxide chloride]	6530 nM

Same assay, conditions: Relative Association IC50, mEphB2-mEphrinB2; immobilized mouse EphB2; 50 nM soluble mouse EphrinB2; association; relative

SMILES	IC50
Oc1c(I)cc(CN2CCOCC2)c2cccnc12 [Compound 8, 4-((8-hydroxy-7-iodoquinolin-1-ium-5-yl)methyl)morpholin-4-ium chloride]	300 nM and 410 nM
O=S1(=O)CCN(Cc2ccc(O)c3ncccc23)CC1 [Compound 15, 4-((8-hydroxyquinolin-1-ium-5-yl)methyl)thiomorpholin-4-ium 1,1-dioxide chloride]	6310 nM

Same assay, conditions: Relative Dissociation IC50, mEphB2-mEphrinB2; immobilized mouse EphB2; 50 nM soluble mouse EphrinB2; dissociation; relative

SMILES	IC50
Oc1c(I)cc(CN2CCOCC2)c2cccnc12 [Compound 8, 4-((8-hydroxy-7-iodoquinolin-1-ium-5-yl)methyl)morpholin-4-ium chloride]	250 nM and 510 nM
O=S1(=O)CCN(Cc2ccc(O)c3ncccc23)CC1 [Compound 15, 4-((8-hydroxyquinolin-1-ium-5-yl)methyl)thiomorpholin-4-ium 1,1-dioxide chloride]	990 nM

Target: T2, EphB2-EphrinA5 (Mus musculus, UniProt P54763)
T2 sequence (P54763 19-543 limits assumed): T1 sequence (P54763 19-543 limits assumed)
Experiment: Octet, immobilized EphB2 binding to human EphrinA5
Details: 1 μM
Procedure: The Octet system was used to probe the interactions of epitope-tagged human A class proteins, focusing on immobilized EphA3 binding to two of its cognate ligands, EphrinA1 and EphrinA5, as well as EphB2 binding to EphrinA5 (FIG. 27). […] Focusing on the dimerization-driven EphA3-EA5 interaction first (green sensorgram trace), which mimics what is disclosed above for EphB4-EB2, the initial binding of soluble EphrinA5 to the immobilized EphA3 is very fast and strong with a long and steep 84° slope of response that then quickly bends around 35 sec into the association step to form a more gradual tetramerization accumulation slope. […] However, again like the EphB4-EB2 interaction, once placed into dissociation, a significant fraction of the bound EA5 protein melts quickly and the off phase continues downward with a slow gradual decline in bound protein. Although the dissociation was for only 500 sec, the continued downward slope of the response indicates most of the bound EA5 protein would eventually melt off of the immobilized EphA3 protein. This is referred to as a classic dimerization-driven interaction, fast and strong initial binding in the association step but with most of the bound protein coming off in the dissociation due to lack of formation of stable tetramers. EphA3 interacts with EphrinA1 with totally different kinetics/dynamics (orange sensorgram trace). Here, the initial high 84° dimerization slope phase is extremely brief (5 sec) with the binding quickly snapping into a linear tetramerization accumulation phase with a 25° slope, and that once placed into dissociation step almost no bound protein melts, just the small amount that would represent dimer interactions falling off in the first few seconds after being placed into dissociation. […] EphB2 interacting with EA5 is similar to the EphA3-EA1 interaction, in that the association step is characterized by a very brief (5 sec) high 84° slope phase that quickly bends into a more gradual tetramer accumulation phase (blue sensorgram trace). […] The strong initial off phase of the EphB2-EA5 complexes in the dissociation represents both the melting of weak dimers and of the relatively weaker affinity tetramers formed by the cross A/B class EphB2-EA5 molecules. […]
as §1

SMILES	formation of stable tetramers
Oc1c(Br)cc(CN2CCOCC2)c2cccnc12 [Compound 5, 7-bromo-5-(morpholinomethyl)quinolin-8-ol]	completely inhibited the formation of stable tetramers

Same assay, conditions: mEphB2-hEphrinA5; immobilized mouse EphB2; 50 nM soluble human EphrinA5; association; absolute; read-out: Absolute Association IC50

SMILES	IC50
Oc1c(I)cc(CN2CCOCC2)c2cccnc12 [Compound 8, 4-((8-hydroxy-7-iodoquinolin-1-ium-5-yl)methyl)morpholin-4-ium chloride]	420 nM and 1590 nM
O=S1(=O)CCN(Cc2ccc(O)c3ncccc23)CC1 [Compound 15, 4-((8-hydroxyquinolin-1-ium-5-yl)methyl)thiomorpholin-4-ium 1,1-dioxide chloride]	7040 nM

Same assay, conditions: mEphB2-hEphrinA5; immobilized mouse EphB2; 50 nM soluble human EphrinA5; association; relative; read-out: Relative Association IC50

SMILES	IC50
Oc1c(I)cc(CN2CCOCC2)c2cccnc12 [Compound 8, 4-((8-hydroxy-7-iodoquinolin-1-ium-5-yl)methyl)morpholin-4-ium chloride]	220 nM and 830 nM
O=S1(=O)CCN(Cc2ccc(O)c3ncccc23)CC1 [Compound 15, 4-((8-hydroxyquinolin-1-ium-5-yl)methyl)thiomorpholin-4-ium 1,1-dioxide chloride]	> 1000 nM

Same assay, conditions: mEphB2-hEphrinA5; immobilized mouse EphB2; 50 nM soluble human EphrinA5; dissociation; absolute; read-out: Absolute Dissociation IC50

SMILES	IC50 [nM]
Oc1c(I)cc(CN2CCOCC2)c2cccnc12 [Compound 8, 4-((8-hydroxy-7-iodoquinolin-1-ium-5-yl)methyl)morpholin-4-ium chloride]	90
O=S1(=O)CCN(Cc2ccc(O)c3ncccc23)CC1 [Compound 15, 4-((8-hydroxyquinolin-1-ium-5-yl)methyl)thiomorpholin-4-ium 1,1-dioxide chloride]	8400

Same assay, conditions: mEphB2-hEphrinA5; immobilized mouse EphB2; 50 nM soluble human EphrinA5; dissociation; relative; read-out: Relative Dissociation IC50

SMILES	IC50 [nM]
Oc1c(I)cc(CN2CCOCC2)c2cccnc12 [Compound 8, 4-((8-hydroxy-7-iodoquinolin-1-ium-5-yl)methyl)morpholin-4-ium chloride]	80
O=S1(=O)CCN(Cc2ccc(O)c3ncccc23)CC1 [Compound 15, 4-((8-hydroxyquinolin-1-ium-5-yl)methyl)thiomorpholin-4-ium 1,1-dioxide chloride]	> 1000

Target: T3, EphB4-EphrinB2 (Mus musculus, UniProt P54761)
T3 construct: biosensor immobilized rodent EphB1-Fc and EphB4-Fc ectodomain proteins; mouse EB2-His residues 18-232; purchased R&D Systems (EphB-Fc); Sino Biologicals (EphrinB-His)
T3 sequence (P54761 16-539 limits assumed): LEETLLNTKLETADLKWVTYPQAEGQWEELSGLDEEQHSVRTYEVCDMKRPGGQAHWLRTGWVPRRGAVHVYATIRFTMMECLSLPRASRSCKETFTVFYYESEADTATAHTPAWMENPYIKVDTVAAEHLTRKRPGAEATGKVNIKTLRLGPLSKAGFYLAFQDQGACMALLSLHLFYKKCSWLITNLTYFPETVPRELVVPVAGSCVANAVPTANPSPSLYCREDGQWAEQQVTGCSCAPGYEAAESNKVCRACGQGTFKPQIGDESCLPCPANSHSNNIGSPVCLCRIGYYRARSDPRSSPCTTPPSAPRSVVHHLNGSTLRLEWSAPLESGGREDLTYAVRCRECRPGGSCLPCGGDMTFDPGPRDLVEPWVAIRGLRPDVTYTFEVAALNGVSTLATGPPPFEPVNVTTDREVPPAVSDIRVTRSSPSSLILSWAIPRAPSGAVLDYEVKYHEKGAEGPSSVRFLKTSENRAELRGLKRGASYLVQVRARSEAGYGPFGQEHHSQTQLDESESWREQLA
Experiment: Octet RED384, immobilized mouse EphB4-Fc binding to mouse EB2-His
Details: EphB4-EB2; read-out: area under the curve IC50
Procedure: […] Association time was for 400 sec and dissociation time was for 500 sec. Binding assays were conducted in PBS containing 0.05% Tween-20 and 1% DMSO.

SMILES	IC50 [nM]
Oc1c(Br)cc(CN2CCOCC2)c2cccnc12 [Compound 5, 7-bromo-5-(morpholinomethyl)quinolin-8-ol]	> 100000

Same assay, conditions: mEphB4-mEphrinB2; immobilized mouse EphB4; 50 nM soluble mouse EphrinB2; association; absolute; read-out: Absolute Association IC50

SMILES	IC50
Oc1c(I)cc(CN2CCOCC2)c2cccnc12 [Compound 8, 4-((8-hydroxy-7-iodoquinolin-1-ium-5-yl)methyl)morpholin-4-ium chloride]	> 1600 nM and 100000 nM
O=S1(=O)CCN(Cc2ccc(O)c3ncccc23)CC1 [Compound 15, 4-((8-hydroxyquinolin-1-ium-5-yl)methyl)thiomorpholin-4-ium 1,1-dioxide chloride]	100000 nM

Same assay, conditions: mEphB4-mEphrinB2; immobilized mouse EphB4; 50 nM soluble mouse EphrinB2; association; relative; read-out: Relative Association IC50

SMILES	IC50
Oc1c(I)cc(CN2CCOCC2)c2cccnc12 [Compound 8, 4-((8-hydroxy-7-iodoquinolin-1-ium-5-yl)methyl)morpholin-4-ium chloride]	510 nM and 340 nM
O=S1(=O)CCN(Cc2ccc(O)c3ncccc23)CC1 [Compound 15, 4-((8-hydroxyquinolin-1-ium-5-yl)methyl)thiomorpholin-4-ium 1,1-dioxide chloride]	> 10000 nM

Same assay, conditions: mEphB4-mEphrinB2; immobilized mouse EphB4; 50 nM soluble mouse EphrinB2; dissociation; absolute; read-out: Absolute Dissociation IC50

SMILES	IC50
Oc1c(I)cc(CN2CCOCC2)c2cccnc12 [Compound 8, 4-((8-hydroxy-7-iodoquinolin-1-ium-5-yl)methyl)morpholin-4-ium chloride]	650 nM and 680 nM
O=S1(=O)CCN(Cc2ccc(O)c3ncccc23)CC1 [Compound 15, 4-((8-hydroxyquinolin-1-ium-5-yl)methyl)thiomorpholin-4-ium 1,1-dioxide chloride]	13200 nM

Same assay, conditions: mEphB4-mEphrinB2; immobilized mouse EphB4; 50 nM soluble mouse EphrinB2; dissociation; relative; read-out: Relative Dissociation IC50

SMILES	IC50 [nM]
Oc1c(I)cc(CN2CCOCC2)c2cccnc12 [Compound 8, 4-((8-hydroxy-7-iodoquinolin-1-ium-5-yl)methyl)morpholin-4-ium chloride]	530
O=S1(=O)CCN(Cc2ccc(O)c3ncccc23)CC1 [Compound 15, 4-((8-hydroxyquinolin-1-ium-5-yl)methyl)thiomorpholin-4-ium 1,1-dioxide chloride]	630
